Experimental data published in publication PMC3672506, “A useful EGFR-TK ligand for tumor diagnosis with SPECT: development of radioiodinated 6-(3-morpholinopropoxy)-7-ethoxy-4-(3′-iodophenoxy)quinazoline” (Annals of Nuclear Medicine, 2013).
Read-outs that look alike come from different tables or passages of the source.

Format: in vivo
Conditions: normal ddY mice; for Blood radioactivity / Bone radioactivity / Brain radioactivity / Colon radioactivity / Heart radioactivity / Intestine radioactivity / Kidney radioactivity / Liver radioactivity / Lung radioactivity / Muscle radioactivity / Pancreas radioactivity / Skin radioactivity / Spleen radioactivity / Stomach radioactivity / Thyroid radioactivity: i.v.
Protocol: [^125I]PYK (37 kBq, 74 TBq/mmol) in 0.1 mL saline was injected intravenously into ddY male mice (5 weeks old, 25–30 g, n = 4) via the lateral tail vein. At the desired time (5 min—24 h) interval after administration, the animals were sacrificed by decapitation. Samples of blood and tissues of interest were excised and weighed. Radioactivity was measured using a well-type NaI(Tl) scintillation gamma counter. The results were expressed in terms of percentage of injected dose per gram of blood or tissue.
[^125I]PYK was transported well into various organs and disappeared slowly from the blood. In the liver highest uptake and rapid clearance were observed. The lungs, kidney, heart, pancreas, spleen, and brain uptakes were similar pattern to that of the liver. Furthermore, the increase in [^125I]PYK uptake in the stomach and thyroid as deiodination parameters were not found.

Q: With `CCOc1cc2ncnc(Oc3cccc([125I])c3)c2cc1OCCCN1CCOCC1` [[^125I]PYK] as the compound, how does the “in vivo stability (deiodination: stomach and thyroid uptake)” value read?
A: good stability

Q: And the Blood radioactivity (5 min after injection)?
A: 0.98 ± 0.61 % injected dose per gram tissu

Q: What about the Bone radioactivity (5 min after injection) of the same compound?
A: 1.13 ± 0.28 % injected dose per gram tissu

Q: What about the Brain radioactivity (5 min after injection) of the same compound?
A: 2.07 ± 0.07 % injected dose per gram tissu

Q: What about the Colon radioactivity (5 min after injection) of the same compound?
A: 1.89 ± 0.37 % injected dose per gram tissu

Q: What about the Heart radioactivity (5 min after injection) of the same compound?
A: 3.47 ± 0.29 % injected dose per gram tissu

Q: And the Intestine radioactivity (5 min after injection)?
A: 4.57 ± 0.63 % injected dose per gram tissu

Q: And the Kidney radioactivity (5 min after injection)?
A: 15.1 ± 1.38 % injected dose per gram tissu

Q: And the Liver radioactivity (5 min after injection)?
A: 10.5 ± 0.92 % injected dose per gram tissu

Q: And the Lung radioactivity (5 min after injection)?
A: 11.89 ± 2.86 % injected dose per gram tissu

Q: And the Muscle radioactivity (5 min after injection)?
A: 1.78 ± 0.13 % injected dose per gram tissu

Q: And the Pancreas radioactivity (5 min after injection)?
A: 6.95 ± 0.49 % injected dose per gram tissu

Q: And the Skin radioactivity (5 min after injection)?
A: 0.68 ± 0.13 % injected dose per gram tissu

Q: And the Spleen radioactivity (5 min after injection)?
A: 4.42 ± 0.95 % injected dose per gram tissu

Q: And the Stomach radioactivity (5 min after injection)?
A: 2.41 ± 0.59 % injected dose per gram tissu

Q: And the Thyroid radioactivity (5 min after injection)?
A: 0.05 ± 0.04 % injected dose per organ

Q: And the Blood radioactivity (15 min after injection)?
A: 1.05 ± 0.08 % injected dose per gram tissu

Q: What about the Bone radioactivity (15 min after injection) of the same compound?
A: 1.36 ± 0.39 % injected dose per gram tissu

Q: And the Brain radioactivity (15 min after injection)?
A: 3.15 ± 1.22 % injected dose per gram tissu

Q: And the Colon radioactivity (15 min after injection)?
A: 2.21 ± 0.48 % injected dose per gram tissu

Q: What about the Heart radioactivity (15 min after injection) of the same compound?
A: 1.76 ± 0.89 % injected dose per gram tissu

Q: What about the Intestine radioactivity (15 min after injection) of the same compound?
A: 5.57 ± 1.69 % injected dose per gram tissu

Q: And the Kidney radioactivity (15 min after injection)?
A: 15.6 ± 1.33 % injected dose per gram tissu

Q: What about the Liver radioactivity (15 min after injection) of the same compound?
A: 13.9 ± 2.47 % injected dose per gram tissu

Q: And the Lung radioactivity (15 min after injection)?
A: 6.85 ± 1.99 % injected dose per gram tissu

Q: What about the Muscle radioactivity (15 min after injection) of the same compound?
A: 0.97 ± 0.15 % injected dose per gram tissu

Q: And the Pancreas radioactivity (15 min after injection)?
A: 5.52 ± 0.50 % injected dose per gram tissu

Q: What about the Skin radioactivity (15 min after injection) of the same compound?
A: 0.91 ± 0.13 % injected dose per gram tissu

Q: And the Spleen radioactivity (15 min after injection)?
A: 4.23 ± 0.90 % injected dose per gram tissu

Q: And the Stomach radioactivity (15 min after injection)?
A: 3.03 ± 0.36 % injected dose per gram tissu

Q: What about the Thyroid radioactivity (15 min after injection) of the same compound?
A: 0.05 ± 0.03 % injected dose per organ

Q: And the Blood radioactivity (30 min after injection)?
A: 0.80 ± 0.07 % injected dose per gram tissu

Q: What about the Bone radioactivity (30 min after injection) of the same compound?
A: 0.60 ± 0.19 % injected dose per gram tissu

Q: What about the Brain radioactivity (30 min after injection) of the same compound?
A: 0.82 ± 0.33 % injected dose per gram tissu

Q: And the Colon radioactivity (30 min after injection)?
A: 2.33 ± 0.40 % injected dose per gram tissu

Q: And the Heart radioactivity (30 min after injection)?
A: 1.43 ± 0.16 % injected dose per gram tissu

Q: What about the Intestine radioactivity (30 min after injection) of the same compound?
A: 9.11 ± 0.57 % injected dose per gram tissu

Q: And the Kidney radioactivity (30 min after injection)?
A: 12.6 ± 2.36 % injected dose per gram tissu

Q: What about the Liver radioactivity (30 min after injection) of the same compound?
A: 13.3 ± 1.83 % injected dose per gram tissu

Q: What about the Lung radioactivity (30 min after injection) of the same compound?
A: 4.40 ± 1.60 % injected dose per gram tissu

Q: And the Muscle radioactivity (30 min after injection)?
A: 1.02 ± 0.53 % injected dose per gram tissu

Q: And the Pancreas radioactivity (30 min after injection)?
A: 3.42 ± 0.33 % injected dose per gram tissu

Q: What about the Skin radioactivity (30 min after injection) of the same compound?
A: 1.02 ± 0.08 % injected dose per gram tissu

Q: And the Spleen radioactivity (30 min after injection)?
A: 3.70 ± 1.24 % injected dose per gram tissu

Q: What about the Stomach radioactivity (30 min after injection) of the same compound?
A: 3.41 ± 0.37 % injected dose per gram tissu

Q: And the Thyroid radioactivity (30 min after injection)?
A: 0.01 ± 0.01 % injected dose per organ

Q: What about the Blood radioactivity (1 h after injection) of the same compound?
A: 0.83 ± 0.16 % injected dose per gram tissu

Q: And the Bone radioactivity (1 h after injection)?
A: 1.81 ± 2.40 % injected dose per gram tissu

Q: What about the Brain radioactivity (1 h after injection) of the same compound?
A: 0.47 ± 0.29 % injected dose per gram tissu

Q: What about the Colon radioactivity (1 h after injection) of the same compound?
A: 3.30 ± 0.10 % injected dose per gram tissu

Q: And the Heart radioactivity (1 h after injection)?
A: 1.33 ± 0.23 % injected dose per gram tissu

Q: What about the Intestine radioactivity (1 h after injection) of the same compound?
A: 15.84 ± 2.63 % injected dose per gram tissu

Q: And the Kidney radioactivity (1 h after injection)?
A: 7.94 ± 0.37 % injected dose per gram tissu

Q: What about the Liver radioactivity (1 h after injection) of the same compound?
A: 12.3 ± 2.45 % injected dose per gram tissu

Q: What about the Lung radioactivity (1 h after injection) of the same compound?
A: 3.42 ± 0.83 % injected dose per gram tissu

Q: What about the Muscle radioactivity (1 h after injection) of the same compound?
A: 0.65 ± 0.04 % injected dose per gram tissu

Q: And the Pancreas radioactivity (1 h after injection)?
A: 2.47 ± 0.43 % injected dose per gram tissu

Q: And the Skin radioactivity (1 h after injection)?
A: 0.99 ± 0.06 % injected dose per gram tissu

Q: What about the Spleen radioactivity (1 h after injection) of the same compound?
A: 2.44 ± 0.35 % injected dose per gram tissu

Q: What about the Stomach radioactivity (1 h after injection) of the same compound?
A: 4.33 ± 0.76 % injected dose per gram tissu

Q: What about the Thyroid radioactivity (1 h after injection) of the same compound?
A: 0.03 ± 0.01 % injected dose per organ

Q: What about the Blood radioactivity (3 h after injection) of the same compound?
A: 0.50 ± 0.13 % injected dose per gram tissu

Q: And the Bone radioactivity (3 h after injection)?
A: 0.25 ± 0.16 % injected dose per gram tissu

Q: And the Brain radioactivity (3 h after injection)?
A: 0.27 ± 0.05 % injected dose per gram tissu

Q: And the Colon radioactivity (3 h after injection)?
A: 21.14 ± 5.62 % injected dose per gram tissu

Q: What about the Heart radioactivity (3 h after injection) of the same compound?
A: 0.64 ± 0.25 % injected dose per gram tissu

Q: What about the Intestine radioactivity (3 h after injection) of the same compound?
A: 14.82 ± 7.80 % injected dose per gram tissu

Q: What about the Kidney radioactivity (3 h after injection) of the same compound?
A: 13.80 ± 9.25 % injected dose per gram tissu

Q: What about the Liver radioactivity (3 h after injection) of the same compound?
A: 10.94 ± 7.67 % injected dose per gram tissu

Q: And the Lung radioactivity (3 h after injection)?
A: 1.75 ± 0.18 % injected dose per gram tissu

Q: And the Muscle radioactivity (3 h after injection)?
A: 1.00 ± 1.27 % injected dose per gram tissu

Q: And the Pancreas radioactivity (3 h after injection)?
A: 2.18 ± 0.92 % injected dose per gram tissu

Q: What about the Skin radioactivity (3 h after injection) of the same compound?
A: 0.47 ± 0.46 % injected dose per gram tissu

Q: And the Spleen radioactivity (3 h after injection)?
A: 0.99 ± 0.56 % injected dose per gram tissu

Q: What about the Stomach radioactivity (3 h after injection) of the same compound?
A: 0.59 ± 0.23 % injected dose per gram tissu

Q: What about the Thyroid radioactivity (3 h after injection) of the same compound?
A: 0.05 ± 0.04 % injected dose per organ

Q: And the Blood radioactivity (6 h after injection)?
A: 0.29 ± 0.03 % injected dose per gram tissu

Q: And the Bone radioactivity (6 h after injection)?
A: 0.23 ± 0.02 % injected dose per gram tissu

Q: What about the Brain radioactivity (6 h after injection) of the same compound?
A: 0.11 ± 0.03 % injected dose per gram tissu

Q: And the Colon radioactivity (6 h after injection)?
A: 22.10 ± 7.54 % injected dose per gram tissu

Q: What about the Heart radioactivity (6 h after injection) of the same compound?
A: 0.63 ± 0.21 % injected dose per gram tissu

Q: And the Intestine radioactivity (6 h after injection)?
A: 8.53 ± 1.84 % injected dose per gram tissu

Q: What about the Kidney radioactivity (6 h after injection) of the same compound?
A: 3.58 ± 0.52 % injected dose per gram tissu

Q: What about the Liver radioactivity (6 h after injection) of the same compound?
A: 4.70 ± 0.36 % injected dose per gram tissu

Q: What about the Lung radioactivity (6 h after injection) of the same compound?
A: 1.77 ± 0.22 % injected dose per gram tissu

Q: And the Muscle radioactivity (6 h after injection)?
A: 0.25 ± 0.04 % injected dose per gram tissu

Q: What about the Pancreas radioactivity (6 h after injection) of the same compound?
A: 1.53 ± 0.38 % injected dose per gram tissu

Q: What about the Skin radioactivity (6 h after injection) of the same compound?
A: 0.75 ± 0.46 % injected dose per gram tissu

Q: What about the Spleen radioactivity (6 h after injection) of the same compound?
A: 1.08 ± 0.25 % injected dose per gram tissu

Q: What about the Stomach radioactivity (6 h after injection) of the same compound?
A: 0.73 ± 0.60 % injected dose per gram tissu

Q: And the Thyroid radioactivity (6 h after injection)?
A: 0.03 ± 0.02 % injected dose per organ

Q: And the Blood radioactivity (24 h after injection)?
A: 0.08 ± 0.04 % injected dose per gram tissu

Q: What about the Bone radioactivity (24 h after injection) of the same compound?
A: 0.04 ± 0.02 % injected dose per gram tissu

Q: What about the Brain radioactivity (24 h after injection) of the same compound?
A: 0.02 ± 0.06 % injected dose per gram tissu

Q: What about the Colon radioactivity (24 h after injection) of the same compound?
A: 15.91 ± 6.59 % injected dose per gram tissu

Q: And the Heart radioactivity (24 h after injection)?
A: 0.22 ± 0.04 % injected dose per gram tissu

Q: And the Intestine radioactivity (24 h after injection)?
A: 3.76 ± 1.38 % injected dose per gram tissu

Q: What about the Kidney radioactivity (24 h after injection) of the same compound?
A: 0.62 ± 0.10 % injected dose per gram tissu

Q: What about the Liver radioactivity (24 h after injection) of the same compound?
A: 0.52 ± 0.10 % injected dose per gram tissu

Q: And the Lung radioactivity (24 h after injection)?
A: 0.38 ± 0.09 % injected dose per gram tissu

Q: And the Muscle radioactivity (24 h after injection)?
A: 0.03 ± 0.01 % injected dose per gram tissu

Q: And the Pancreas radioactivity (24 h after injection)?
A: 0.35 ± 0.05 % injected dose per gram tissu

Q: What about the Skin radioactivity (24 h after injection) of the same compound?
A: 0.17 ± 0.11 % injected dose per gram tissu

Q: And the Spleen radioactivity (24 h after injection)?
A: 0.24 ± 0.02 % injected dose per gram tissu

Q: What about the Stomach radioactivity (24 h after injection) of the same compound?
A: 0.16 ± 0.04 % injected dose per gram tissu

Q: And the Thyroid radioactivity (24 h after injection)?
A: 0.01 ± 0.00 % injected dose per organ
